Results taken from patent US20210045385A1, “PYRIDAZINONE-SUBSTITUTED KETOXIMES AS HERBICIDES” (FMC Corporation, priority 2018, published 2021).

Key:
Assay type in all cases: in vivo
[1] = system: foxtail, giant (giant foxtail, Setaria faberi); test: Test C postemergence, visual plant response rating
Outline: (§1)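 Seeds sown in a loam–sand blend got a directed preemergence soil spray; postemergence plants (2–10 cm, one- to two-leaf stage) were sprayed with compound in a non-phytotoxic solvent plus surfactant. Injury was scored visually against untreated controls after about 10 d in a greenhouse on a 0–100 scale (100 = complete control).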

[2] = system: ragweed (common ragweed, Ambrosia artemisiifolia); test: Test C postemergence, visual plant response rating
Outline: as §1

kochia (Bassia scoparia) [3] = test: Test C postemergence, visual plant response rating
Outline: as §1

[4] = system: pigweed (Amaranthus retroflexus); test: Test C postemergence, visual plant response rating
Outline: as §1

[5] = system: blackgrass (Alopecurus myosuroides); test: Test C postemergence, visual plant response rating
Outline: as §1

[6] = system: Italian ryegrass (Lolium mutiflorum); test: Test C postemergence, visual plant response rating
Outline: as §1

[7] = system: galium (catchweed bedstraw, Galium aparine); test: Test C postemergence, visual plant response rating
Outline: as §1

[8] = system: barnyardgrass (Echinochloa crus-galli); test: Test C postemergence, visual plant response rating
Outline: as §1

corn (Zea mays) = test: Test C postemergence, visual plant response rating
Outline: as §1

[9] = system: wheat (Triticum aestivum); test: Test C postemergence, visual plant response rating
Outline: as §1

rice (Oryza sativa) = test: Test D flooded paddy test, visual plant response rating; conditions: 250 g ai/ha, scale 0 to 100 (0 no effect, 100 complete control), 13 to 15 d
Outline: (§2)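 Greenhouse paddy assay scored on a 0–100 visual scale after 13 to 15 d, where 100 means complete control and a dash marks no result; dosing was into 3 cm floodwater over 2-leaf plants.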

[10] = system: duck salad (Heteranthera limosa); test: as above; conditions: 250 g ai/ha, scale 0 to 100 (0 no effect, 100 complete control), 13 to 15 d
Outline: as §2

[11] = system: sedge umbrella (small-flower umbrella sedge, Cyperus difformis); test: as above; conditions: 250 g ai/ha, scale 0 to 100 (0 no effect, 100 complete control), 13 to 15 d
Outline: as §2

[12] = system: barnyardgrass (Echinochloa crus-galli); test: as above; conditions: 250 g ai/ha, scale 0 to 100 (0 no effect, 100 complete control), 13 to 15 d
Outline: as §2

[13] = system: foxtail, giant (giant foxtail, Setaria faberi); test: Test C preemergence, visual plant response rating
Outline: as §1

[14] = system: ragweed (common ragweed, Ambrosia artemisiifolia); test: Test C preemergence, visual plant response rating
Outline: as §1

kochia (Bassia scoparia) [15] = test: Test C preemergence, visual plant response rating
Outline: as §1

[16] = system: pigweed (Amaranthus retroflexus); test: Test C preemergence, visual plant response rating
Outline: as §1

[17] = system: Italian ryegrass (Lolium mutiflorum); test: Test C preemergence, visual plant response rating
Outline: as §1

[18] = system: barnyardgrass (Echinochloa crus-galli); test: Test C preemergence, visual plant response rating
Outline: as §1

[19] = Test C, postemergence, 125 g ai/ha
[20] = Test C, 31 g ai/ha, 0 is no effect, 100 is complete control
[21] = Test C, 125 g ai/ha, 0 is no effect, 100 is complete control

Structure (SMILES)	Foxtail, Giant plant response rating (0 to 100 scale) ([1]; Postemergence, 31 g ai/ha)	Foxtail, Giant plant response rating (0 to 100 scale) [1, 19]	Ragweed plant response rating (0 to 100 scale) ([2]; Postemergence, 31 g ai/ha)	Ragweed plant response rating (0 to 100 scale) [2, 19]	Kochia plant response rating (0 to 100 scale) (kochia (Bassia scoparia) [3]; Postemergence, 31 g ai/ha)	Kochia plant response rating (0 to 100 scale) (kochia (Bassia scoparia) [3]; [19])	Pigweed plant response rating (0 to 100 scale) ([4]; Postemergence, 31 g ai/ha)	Pigweed plant response rating (0 to 100 scale) [4, 19]	Blackgrass plant response rating (0 to 100 scale) ([5]; Postemergence, 31 g ai/ha)	Blackgrass plant response rating (0 to 100 scale) [5, 19]	Ryegrass, Italian plant response rating (0 to 100 scale) ([6]; Postemergence, 31 g ai/ha)	Ryegrass, Italian plant response rating (0 to 100 scale) [6, 19]	Galium plant response rating (0 to 100 scale) ([7]; Postemergence, 31 g ai/ha)	Galium plant response rating (0 to 100 scale) [7, 19]	Barnyardgrass plant response rating (0 to 100 scale) ([8]; Postemergence, 31 g ai/ha)	Barnyardgrass plant response rating (0 to 100 scale) [8, 19]	Corn plant response rating (0 to 100 scale) (corn (Zea mays); Postemergence, 31 g ai/ha)	Corn plant response rating (0 to 100 scale) (corn (Zea mays); [19])	Wheat plant response rating (0 to 100 scale) ([9]; Postemergence, 31 g ai/ha)	Wheat plant response rating (0 to 100 scale) [9, 19]	other results
CO/N=C(/c1ccc(Cl)c(Cl)c1)c1c(O)c(C)nn(C)c1=O [Compound 216]	0	0	10	40	20	50	0	20	0	0	0	0	30	80	0	10	0	0	0	0	Plant response rating, Rice (Flood) (rice (Oryza sativa)): 0; Plant response rating, Ducksalad (Flood) [10]: 0; Plant response rating, Sedge, Umbrella (Flood) [11]: 0; Plant response rating, Barnyardgrass (Flood) [12]: 0; Foxtail, Giant plant response rating (0 to 100 scale) [13, 20]: 0; Foxtail, Giant plant response rating (0 to 100 scale) [13, 21]: 0; Ragweed plant response rating (0 to 100 scale) [14, 20]: 0; Ragweed plant response rating (0 to 100 scale) [14, 21]: 0; Kochia plant response rating (0 to 100 scale) (kochia (Bassia scoparia) [15]; [20]): 0; Kochia plant response rating (0 to 100 scale) (kochia (Bassia scoparia) [15]; [21]): 0; Pigweed plant response rating (0 to 100 scale) [16, 20]: 0; Pigweed plant response rating (0 to 100 scale) [16, 21]: 0; Ryegrass, Italian plant response rating (0 to 100 scale) [17, 20]: 0; Ryegrass, Italian plant response rating (0 to 100 scale) [17, 21]: 10; Barnyardgrass plant response rating (0 to 100 scale) [18, 20]: 50; Barnyardgrass plant response rating (0 to 100 scale) [18, 21]: 0
CO/N=C(\c1cc(Cl)c(F)c(Cl)c1)c1c(O)c(C)nn(C)c1=O [Compound 290]	0	0	20	50	0	20	0	0	0	0	0	60	70	100	0	20	0	0	0	0	Plant response rating, Rice (Flood) (rice (Oryza sativa)): 0; Plant response rating, Ducksalad (Flood) [10]: 0; Plant response rating, Sedge, Umbrella (Flood) [11]: 0; Plant response rating, Barnyardgrass (Flood) [12]: 0; Foxtail, Giant plant response rating (0 to 100 scale) [13, 20]: 0; Foxtail, Giant plant response rating (0 to 100 scale) [13, 21]: 20; Ragweed plant response rating (0 to 100 scale) [14, 20]: 20; Ragweed plant response rating (0 to 100 scale) [14, 21]: 90; Kochia plant response rating (0 to 100 scale) (kochia (Bassia scoparia) [15]; [20]): 0; Kochia plant response rating (0 to 100 scale) (kochia (Bassia scoparia) [15]; [21]): 0; Pigweed plant response rating (0 to 100 scale) [16, 20]: 10; Pigweed plant response rating (0 to 100 scale) [16, 21]: 30; Ryegrass, Italian plant response rating (0 to 100 scale) [17, 20]: 0; Ryegrass, Italian plant response rating (0 to 100 scale) [17, 21]: 40; Barnyardgrass plant response rating (0 to 100 scale) [18, 20]: 0; Barnyardgrass plant response rating (0 to 100 scale) [18, 21]: 0
Cc1nn(C)c(=O)c(/C(=N/OC(C)C)c2cc(Cl)cc(Cl)c2F)c1O [Compound 179]	90	100	100	100	80	100	100	100	80	90	90	100	100	100	90	80	30	80	80	100	Plant response rating, Rice (Flood) (rice (Oryza sativa)): 70; Plant response rating, Ducksalad (Flood) [10]: 80; Plant response rating, Sedge, Umbrella (Flood) [11]: 95; Plant response rating, Barnyardgrass (Flood) [12]: 95; Foxtail, Giant plant response rating (0 to 100 scale) ([13]; 125 g ai/ha): 100; Foxtail, Giant plant response rating (0 to 100 scale) [13, 20]: 100; Ragweed plant response rating (0 to 100 scale) ([14]; 125 g ai/ha): 100; Ragweed plant response rating (0 to 100 scale) [14, 20]: 90; Kochia plant response rating (0 to 100 scale) (kochia (Bassia scoparia) [15]; 125 g ai/ha): 90; Kochia plant response rating (0 to 100 scale) (kochia (Bassia scoparia) [15]; [20]): 90; Pigweed plant response rating (0 to 100 scale) ([16]; 125 g ai/ha): 100; Pigweed plant response rating (0 to 100 scale) [16, 20]: 100; Ryegrass, Italian plant response rating (0 to 100 scale) ([17]; 125 g ai/ha): 100; Ryegrass, Italian plant response rating (0 to 100 scale) [17, 20]: 100; Barnyardgrass plant response rating (0 to 100 scale) ([18]; 125 g ai/ha): 100; Barnyardgrass plant response rating (0 to 100 scale) [18, 20]: 90
